The term EC50 denotes the concentration needed to bring the measured effect to its halfway point. Broadly, the IC50 is the concentration that inhibits the measured activity by half.

We go through three compounds from patent publication US9023789B2, “Amylin analogs and pharmaceutical compositions thereof” (Novo Nordisk A/S, priority 2012, dated 2015).

For data set [1], the target named is T1, human calcitonin (a) receptor in BHK570 cells (Homo sapiens, UniProt P30988).
T1 construct: expressed in transfected cells
T1 sequence (P30988 25-474): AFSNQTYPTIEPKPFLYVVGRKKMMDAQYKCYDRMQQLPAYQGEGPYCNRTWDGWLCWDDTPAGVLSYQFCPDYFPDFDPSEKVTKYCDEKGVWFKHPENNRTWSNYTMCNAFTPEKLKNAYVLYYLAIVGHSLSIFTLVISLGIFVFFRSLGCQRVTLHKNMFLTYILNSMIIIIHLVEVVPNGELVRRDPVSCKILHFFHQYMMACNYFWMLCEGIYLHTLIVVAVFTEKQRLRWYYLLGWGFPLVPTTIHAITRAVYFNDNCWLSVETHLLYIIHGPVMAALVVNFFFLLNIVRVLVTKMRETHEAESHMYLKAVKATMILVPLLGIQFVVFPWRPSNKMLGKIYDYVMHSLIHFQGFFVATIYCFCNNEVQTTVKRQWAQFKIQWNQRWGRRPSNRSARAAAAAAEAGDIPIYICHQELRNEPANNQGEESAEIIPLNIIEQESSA
Put plainly: ASSAY (II)a functional assay, human calcitonin receptor (CRE luciferase). The format is cell-based. The following applies: read-out: hCTR funct. EC50. The procedure, abridged:
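Ligand exposure 3 h at 37 °C, 5% CO2 in DMEM with 10% FBS, 10 mM Hepes pH 7.4. cAMP-driven luciferase read by luminescence after 30 min LucLite at room temperature.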

Data set [2] can be described thus: ASSAY (IV) determination of solubility. The format is physicochemical. The gist of the method:
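Polypeptide stock in water ([…]) was mixed 1:1 with 100 mM buffers: glycylglycine at pH 3.0, 4.0, 5.0 and bistrispropane at pH 6.0, 6.5, 7.0, 7.5, 8.0. After 18 hours at room temperature, samples were centrifuged and polypeptide concentration measured by UPLC.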

Data set [3] concerns the target T2, rat amylin receptor (rat calcitonin receptor + rat RAMP 3) (Rattus norvegicus, UniProt P32214+Q9JJ73).
T2 construct: expressed in transfected cells; host or cells: BHK tk'ts 13 (transient, FuGENE 6), membranes
T2 sequence (P32214 25-479 isoform P32214-2 limits assumed): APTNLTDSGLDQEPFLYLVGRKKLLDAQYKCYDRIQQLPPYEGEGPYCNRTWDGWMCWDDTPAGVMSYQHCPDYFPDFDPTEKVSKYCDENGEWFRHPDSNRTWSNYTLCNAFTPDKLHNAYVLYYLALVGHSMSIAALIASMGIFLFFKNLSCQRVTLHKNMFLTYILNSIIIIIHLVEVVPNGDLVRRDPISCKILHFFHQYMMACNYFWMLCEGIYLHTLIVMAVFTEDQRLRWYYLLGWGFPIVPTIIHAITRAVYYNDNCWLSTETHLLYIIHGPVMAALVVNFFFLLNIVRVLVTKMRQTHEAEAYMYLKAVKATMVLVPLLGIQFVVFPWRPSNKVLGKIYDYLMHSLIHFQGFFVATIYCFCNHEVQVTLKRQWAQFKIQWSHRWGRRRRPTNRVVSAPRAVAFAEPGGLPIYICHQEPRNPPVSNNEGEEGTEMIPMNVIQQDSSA
T2 sequence (Q9JJ73 23-147 partner): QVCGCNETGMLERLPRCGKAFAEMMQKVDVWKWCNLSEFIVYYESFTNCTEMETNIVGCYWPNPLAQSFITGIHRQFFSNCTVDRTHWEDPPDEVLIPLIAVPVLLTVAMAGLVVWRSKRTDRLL
Briefly: ASSAY (VI) binding to the rat amylin receptor. As to conditions: for IC50: binding to rat amylin receptor, read-out: rAmylin-R bind IC50. The procedure, abridged:
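This assay measured binding to the rat amylin receptor. BHK tk′ts 13 cells were transiently transfected with the rat calcitonin receptor using FuGENE® 6 (Roche), following the manufacturer's recommendations. About 48 hours after transfection, the cells were harvested and membranes were prepared from them for the binding determination.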

The target in data set [4] is T3, human calcitonin receptor (Homo sapiens, UniProt P30988).
T3 construct: expressed in transfected cells
T3 sequence (P30988 25-474): T1 sequence (P30988 25-474)
Put plainly: ASSAY (VII) binding to the human calcitonin receptor (SPA, 125I-Calcitonin).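 Further: cell membranes (35 ng/µL) combined with SPA beads in 40 µL of pH 7.4 Hepes buffer, 384-well format, signal counted on a TopCounter instrument.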 The following applies: read-out: hCTR bind IC50.

The next data set concerns the target T4, rat calcitonin receptor (Rattus norvegicus, UniProt P32214).
T4 construct: expressed in transfected cells; host or cells: BHK tk'ts 13 (transient, FuGENE 6), membranes
T4 sequence (P32214 25-479 isoform P32214-2 limits assumed): T2 sequence (P32214 25-479 isoform P32214-2 limits assumed)
Briefly: ASSAY (VIII) binding to the rat calcitonin receptor. As to conditions: Table 7, read-out: rCTR bind IC50. The procedure, abridged: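 Transfect BHK tk′ts 13 cells transiently with rat calcitonin receptor, culture in DMEM containing 10% FBS, collect cells about 48 hours later, then prepare membranes.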

Where [5] appears, read: bistrispropane buffer, pH 6.5, read-out: Solubility pH 6.5 Concentration.
[6] abbreviates: bistrispropane buffer, pH 7.5, read-out: Solubility pH 7.5 Concentration.
[7] abbreviates: bistrispropane buffer, pH 6.0, read-out: Solubility pH 6.0 Concentration.
Setting [8] is: bistrispropane buffer, pH 7.0, read-out: Solubility pH 7.0 Concentration.
The mark [9] stands for this setting: bistrispropane buffer, pH 8.0, read-out: Solubility pH 8.0 Concentration.
[10] abbreviates: glycylglycine buffer, pH 3.0, read-out: Solubility pH 3.0 Concentration.
[11] abbreviates: glycylglycine buffer, pH 4.0, read-out: Solubility pH 4.0 Concentration.
The mark [12] stands for this setting: glycylglycine buffer, pH 5.0, read-out: Solubility pH 5.0 Concentration.
The mark [13] stands for this setting: Table 7, rat binding selectivity, rCTR IC50 / rAmylin-R IC50.
[14] abbreviates: Table 7a (preferred compounds), rat binding selectivity, rCTR IC50 / rAmylin-R IC50.
[15] abbreviates: ratio of rCTR bind IC50 to rAmylin-R bind IC50.

Molecules are shown by their SMILES. Converted amounts (≈) assume the structure as drawn. Like-named read-outs stand apart in the source and are kept apart here. Numbered stars: 1 amine (or outer) side, 2 acyl side, 3 side chain; on linkers, the order of the positions; unused ones are H or OH. Bridge positions count the residues as written; N and C are the ends. Side chains are listed from the residue outwards. Peptide text beside a SMILES is read from it. * marks the point of attachment. C20 diacid = O=C(O)CCCCCCCCCCCCCCCCCCC(=O)*; γGlu = O=C(O)[C@H](CCC(=O)[*:2])N[*:1]; AEEA = NCCOCCOCC(=O)O

On to `CC[C@H](C)[C@H](NC(=O)[C@H](C)NC(=O)CNC(=O)[C@H](Cc1ccccc1)NC(=O)[C@H](CC(N)=O)NC(=O)[C@@H]1CCCN1C(=O)[C@H](CO)NC(=O)[C@H](CO)NC(=O)[C@H](Cc1c[nH]cn1)NC(=O)[C@H](CCCNC(=N)N)NC(=O)[C@H](CC(C)C)NC(=O)[C@H](Cc1ccccc1)NC(=O)[C@H](C)NC(=O)[C@H](C)NC(=O)[C@H](CC(C)C)NC(=O)[C@H](CCCNC(=N)N)NC(=O)[C@H](CCC(N)=O)NC(=O)[C@@H](NC(=O)[C@H](C)NC(=O)[C@@H]1CSSC[C@H](NC(=O)[C@@H](N)CCCCNC(=O)COCCOCCNC(=O)CC[C@H](NC(=O)CCCCCCCCCCCCCCCCCCC(=O)O)C(=O)O)C(=O)N[C@@H](CC(N)=O)C(=O)N[C@@H]([C@@H](C)O)C(=O)N[C@@H](C)C(=O)N[C@@H]([C@@H](C)O)C(=O)N1)[C@@H](C)O)C(=O)N1CCC[C@H]1C(=O)N[C@@H](CO)C(=O)N[C@@H](CO)C(=O)N[C@H](C(=O)N1CCC[C@H]1C(=O)N[C@H](C(=O)NCC(=O)N[C@@H](CO)C(=O)N[C@@H](CC(N)=O)C(=O)N[C@H](C(=O)N[C@@H](Cc1ccc(O)cc1)C(N)=O)[C@@H](C)O)C(C)C)[C@@H](C)O` [Example 72] (H-K([AEEA-γGlu-C20 diacid])CNTATCATQRLAAFLRHSSPNFGAIPSSTPVGSNTY-NH2; disulfide 2-7 (inferred); N-terminus assumed), for which the EC50 in data set [1] amounted to 4.76 nM. The solubility at 18 h in data set [2] (setting [5]) was not below 200 µM; in data set [2] (setting [6]), not below 200 µM; in data set [2] (setting [7]), not below 200 µM; in data set [2] (setting [8]), not below 200 µM; in data set [2] (setting [9]) it was 194 µM (≈ 866 µg/mL); in data set [2] (setting [10]), not below 200 µM. Also, the solubility at 18 h in data set [2] (setting [11]) and in data set [2] (setting [12]) was not below 200 µM each time. Besides, the half-inhibitory concentration (IC50) is 0.851 nM in data set [3] (Table 7), 42.4 nM in data set [4] and 221 nM on rat calcitonin receptor. Moreover, the “Ratio rCT/rAmylin binding” value in data set [3] (setting [13]), in data set [3] (setting [14]) and in data set [3] (setting [15]) was 259.3 throughout.

With `CC[C@H](C)[C@H](NC(=O)[C@H](C)NC(=O)CNC(=O)[C@H](Cc1ccccc1)NC(=O)[C@H](CC(N)=O)NC(=O)[C@@H]1CCCN1C(=O)[C@H](CO)NC(=O)[C@H](CO)NC(=O)[C@H](Cc1c[nH]cn1)NC(=O)[C@H](CCCNC(=N)N)NC(=O)[C@H](CC(C)C)NC(=O)[C@H](Cc1ccccc1)NC(=O)[C@@H](NC(=O)[C@H](C)NC(=O)[C@H](CC(C)C)NC(=O)[C@H](CCCNC(=N)N)NC(=O)[C@H](CCC(N)=O)NC(=O)[C@@H](NC(=O)[C@H](C)NC(=O)[C@@H]1CSSC[C@H](NC(=O)[C@@H](N)CCCCNC(=O)COCCOCCNC(=O)CC[C@H](NC(=O)CCCCCCCCCCCCCCCCCCC(=O)O)C(=O)O)C(=O)N[C@@H](CC(N)=O)C(=O)N[C@@H]([C@@H](C)O)C(=O)N[C@@H](C)C(=O)N[C@@H]([C@@H](C)O)C(=O)N1)[C@@H](C)O)[C@@H](C)O)C(=O)N1CCC[C@H]1C(=O)N[C@@H](CO)C(=O)N[C@@H](CO)C(=O)N[C@H](C(=O)N1CCC[C@H]1C(=O)N[C@H](C(=O)NCC(=O)N[C@@H](CO)C(=O)N[C@@H](CC(N)=O)C(=O)N[C@H](C(=O)N[C@@H](Cc1ccc(O)cc1)C(N)=O)[C@@H](C)O)C(C)C)[C@@H](C)O` [Example 75] (H-K([AEEA-γGlu-C20 diacid])CNTATCATQRLATFLRHSSPNFGAIPSSTPVGSNTY-NH2; disulfide 2-7 (inferred); N-terminus assumed), the EC50 in data set [1] was 9.07 nM. Further, the solubility at 18 h in data set [2] (setting [5]) was not below 200 µM; in data set [2] (setting [6]), 193 µM (≈ 868 µg/mL); in data set [2] (setting [7]) it was not below 200 µM; in data set [2] (setting [8]), not below 200 µM; in data set [2] (setting [9]), 150 µM (≈ 674 µg/mL); in data set [2] (setting [10]), not below 200 µM. For the same compound, the solubility at 18 h in data set [2] (setting [11]) and in data set [2] (setting [12]) was not below 200 µM each time. For the same compound, the half-inhibitory concentration (IC50) came to 4.03 nM in data set [3] (Table 7), 60.9 nM in data set [4] and 442 nM at rat calcitonin receptor. Besides, the “Ratio rCT/rAmylin binding” value in data set [3] (setting [13]), in data set [3] (setting [14]) and in data set [3] (setting [15]) was 109.8 each time.

In the case of `CC[C@H](C)[C@H](NC(=O)[C@H](C)NC(=O)CNC(=O)[C@H](Cc1ccccc1)NC(=O)[C@H](CC(N)=O)NC(=O)[C@@H]1CCCN1C(=O)[C@H](CO)NC(=O)[C@H](CO)NC(=O)[C@H](Cc1c[nH]cn1)NC(=O)[C@H](CCCNC(=N)N)NC(=O)[C@H](CC(C)C)NC(=O)[C@H](Cc1ccccc1)NC(=O)[C@H](CC(N)=O)NC(=O)[C@H](C)NC(=O)[C@H](CC(C)C)NC(=O)[C@H](CCCNC(=N)N)NC(=O)[C@H](CCC(N)=O)NC(=O)[C@@H](NC(=O)[C@H](C)NC(=O)[C@@H]1CSSC[C@H](NC(=O)[C@@H](N)CCCCNC(=O)COCCOCCNC(=O)CC[C@H](NC(=O)CCCCCCCCCCCCCCCCCCC(=O)O)C(=O)O)C(=O)N[C@@H](CC(N)=O)C(=O)N[C@@H]([C@@H](C)O)C(=O)N[C@@H](C)C(=O)N[C@@H]([C@@H](C)O)C(=O)N1)[C@@H](C)O)C(=O)N1CCC[C@H]1C(=O)N[C@@H](CO)C(=O)N[C@@H](CO)C(=O)N[C@H](C(=O)N[C@@H](CC(N)=O)C(=O)N[C@H](C(=O)NCC(=O)N[C@@H](CCCNC(=N)N)C(=O)N[C@@H](CC(N)=O)C(=O)N[C@H](C(=O)N[C@@H](Cc1ccc(O)cc1)C(N)=O)[C@@H](C)O)C(C)C)[C@@H](C)O` [Example 78] (H-K([AEEA-γGlu-C20 diacid])CNTATCATQRLANFLRHSSPNFGAIPSSTNVGRNTY-NH2; disulfide 2-7 (inferred)), the EC50 in data set [1] came to 8.17 nM. Besides, the solubility at 18 h in data set [2] (setting [5]), in data set [2] (setting [6]), in data set [2] (setting [7]), in data set [2] (setting [8]), in data set [2] (setting [9]) and in data set [2] (setting [10]) was not below 200 µM in each case. In addition, the solubility at 18 h in data set [2] (setting [11]) and in data set [2] (setting [12]) was not below 200 µM each time. Moreover, the IC50 in data set [3] (Table 7) was 1.3 nM; in data set [4], 36.6 nM; on rat calcitonin receptor, 90.6 nM. Besides, the “Ratio rCT/rAmylin binding” value in data set [3] (setting [13]), in data set [3] (setting [14]) and in data set [3] (setting [15]) was 69.9 throughout.
